Data: patent US9868737B2, “Pyridino[1,2-A]pyrimidone analogue used as MTOR/P13K inhibitor” (CISEN PHARMACEUTICAL CO., LTD., priority 2014, dated 2018)
Like-named read-outs stand apart in the source and are kept apart here.

Experiments:
MCF-7 cells = test: In vitro test of cell activity (MCF-7 cells, insulin stimulation, ELISA-One fluorescence); assay type: cell-based; conditions: Homo sapiens, MCF7, MCF-7 cells; for inhibition at 0.5 µM: conc. 0.5 μM; for inhibition at 1 µM: conc. 1 μM; for inhibition at 0.25 µM: conc. 0.25 μM
In short: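 Fluorescence ELISA-One read-out on cell lysates, antibody-captured 1 h at room temperature. Before lysis, MCF-7 cells (2.5×10^4/well) were pretreated 2 h with compound in serum-free medium, single dose for screening or a dilution series for IC50, then stimulated 30 min with insulin ([…] final).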

PI3K (p110α) kinase = molecular target: T1, PI3K (p110α) kinase (Homo sapiens, UniProt P42336); test: PI3K (p110α) kinase assay (PI3K HTRF Assay); assay type: biochemical; conditions: in vitro enzyme activity assay, 10 μM PIP2, read-out: PI3K (p110α) enzyme activity_IC50
T1 construct: made in house
T1 sequence (P42336 whole entry): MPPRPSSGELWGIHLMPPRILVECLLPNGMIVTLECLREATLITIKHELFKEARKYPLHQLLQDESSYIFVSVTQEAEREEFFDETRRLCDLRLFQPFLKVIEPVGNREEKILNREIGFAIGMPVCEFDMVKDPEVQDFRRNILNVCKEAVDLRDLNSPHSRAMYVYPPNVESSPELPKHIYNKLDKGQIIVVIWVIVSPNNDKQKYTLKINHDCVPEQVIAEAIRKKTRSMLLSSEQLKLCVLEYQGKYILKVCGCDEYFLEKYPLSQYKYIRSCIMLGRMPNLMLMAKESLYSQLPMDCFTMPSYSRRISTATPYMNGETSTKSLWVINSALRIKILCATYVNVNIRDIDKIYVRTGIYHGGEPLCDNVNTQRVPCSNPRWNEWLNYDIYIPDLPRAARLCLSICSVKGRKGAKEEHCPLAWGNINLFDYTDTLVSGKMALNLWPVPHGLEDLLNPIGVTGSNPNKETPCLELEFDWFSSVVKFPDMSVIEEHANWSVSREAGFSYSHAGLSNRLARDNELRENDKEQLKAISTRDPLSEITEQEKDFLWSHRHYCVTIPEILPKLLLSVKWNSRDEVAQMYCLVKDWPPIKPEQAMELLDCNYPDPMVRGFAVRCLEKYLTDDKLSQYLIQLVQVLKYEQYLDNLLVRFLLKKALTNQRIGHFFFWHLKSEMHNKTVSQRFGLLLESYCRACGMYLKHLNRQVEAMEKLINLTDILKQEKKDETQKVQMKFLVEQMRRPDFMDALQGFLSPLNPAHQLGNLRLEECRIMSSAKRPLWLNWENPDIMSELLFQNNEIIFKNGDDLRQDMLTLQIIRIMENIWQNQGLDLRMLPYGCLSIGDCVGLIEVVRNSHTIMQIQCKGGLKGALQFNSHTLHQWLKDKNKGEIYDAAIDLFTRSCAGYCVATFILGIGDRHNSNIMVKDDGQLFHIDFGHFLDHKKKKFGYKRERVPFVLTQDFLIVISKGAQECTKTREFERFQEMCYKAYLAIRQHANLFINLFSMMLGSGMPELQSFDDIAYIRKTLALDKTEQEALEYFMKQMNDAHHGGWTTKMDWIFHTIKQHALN
From the text: Conclusion: The compounds of the present invention have significant inhibitory effect on mTOR/PI3K. Example In Vitro Enzyme Activity Assay 1. The experimental procedures and methods of PI3K (p110α) kinase assay: 1) Experimental Objective
The objective was to evaluate the inhibitory effect of the subject samples on PI3K (p110α) kinase activity at molecular level.
(§1) PerkinElmer Envision 2104 Multilabel Reader.
PI 3-Kinase HTRF Assay (384 wells) was purchased from Upstate (Millipore) company: PI3K (p110α) kinase was made in our lab.
c) Experimental procedures
Each solution was prepared according to the instructions provided in the Kinase PI 3-Kinase HTRF Assay. The kinase reaction was carried out in white 384-well plates (Proxiplate-384 plus), 0.5 μl of DMSO (the concentration was consistent with the highest concentration of DMSO for the test compounds) was added to each of the two control wells with and without enzyme, and then 0.5 μl of a series of different concentrations of the test compounds was added to each well to be tested. The kinase reaction liquid (10 μM substrate PIP2, 0.5 ng PI3K (p110α)) was added to the control well containing enzyme and the test wells, while only working reaction liquid (10 μM substrate PIP2) was added to the control well without enzyme, and finally, 5 μM ATP working reaction liquid was added to activate the reaction. After the reaction was carried out at room temperature for 30 min, the stop solution was added to each well to terminate the kinase reaction. After the mixture was fully mixed, the detection liquid was added to each well and fully mixed. The plate was sealed with Parafilm and placed in the dark. After incubated overnight, the mixture was detected.
(§2) The IC50 value was calculated through the GraphPad software after plotting the relative inhibitory rate versus concentration.

mTOR kinase = molecular target: T2, mTOR kinase (Homo sapiens, UniProt P42345); test: mTOR kinase assay; assay type: biochemical; conditions: in vitro enzyme activity assay; ATP 100 μM; read-out: mTOR enzyme activity_IC50
T2 construct: made in house
Protocol: 2. Experimental Procedures and Methods of the mTOR Kinase Assay
The objective was to evaluate the inhibitory effect of the subject samples on the mTOR kinase activity at molecular level.
as §1
The mTOR Kinase Assay (384 wells) was purchased from PerkinElmer company; the mTOR kinase was made in our lab.
Each solution was prepared according to the instructions provided in the mTOR Kinase Assay. The kinase reaction was carried out in white 384-well plates (Proxiplate-384 plus). 2.5 μl of DMSO (the concentration was consistent with the highest concentration of DMSO for the test compounds) was added to each of the two control wells with and without enzyme, and then 2.5 μl of a series of different concentrations of the test compounds was added to each test well. ULight-4E-BP1 (Thr37/46) PeptideATP mix (the final concentration of ATP was 100 μM) and 5 μl of mTOR kinase were added to the control well containing enzyme as well as the test wells, and fully mixed. The plate was sealed with Parafilm and incubated for 2 h. Then 5 μl of stop solution was added and incubated for 5 minutes. Afterwards, 5 μl of Detection Mix (Eu-anti-phospho-4E-BP1 (Thr37/46) Antibody, the final concentration was 2 nM) was added and incubated for 1 h, and then the mixture was detected.
as §2

Compound | IC50 (MCF-7 cells; read-out: IC50 p-AKT) [nM] | IC50 (PI3K (p110α) kinase) [nM] | other results
COCCOc1cnc2ccc(-c3cnc(OC)c(NS(=O)(=O)c4ccc(F)c(F)c4)c3)cn2c1=O [compound 246] | 100 to 250 | ≤ 1 | –
COCCOc1cnc2ccc(-c3cnc(OC)c(NS(=O)(=O)c4ccc(C)cc4C)c3)cn2c1=O [compound 244] | 50 to 100 | ≤ 1 | –
COc1ncc(-c2ccc3ncc(Cl)c(=O)n3c2)cc1NS(=O)(=O)c1ccc(F)cc1Cl [compound 135] | ≤ 50 | ≤ 1 | inhibition at 0.5 µM (MCF-7 cells; read-out: % inhibition AKT): 95.2%; inhibition at 0.5 µM (MCF-7 cells; read-out: % inhibition p70s6k): 87.6%; IC50 (MCF-7 cells; read-out: IC50 p-p70S6K): 50 to 100 nM; IC50 (mTOR kinase): 1 to 10 nM
COc1ncc(-c2ccc3nccc(=O)n3c2)cc1NS(=O)(=O)c1ccc(Cl)s1 [compound 36] | ≤ 50 | 1 to 10 | inhibition at 0.5 µM (MCF-7 cells; read-out: % inhibition AKT): 96.4%; inhibition at 0.5 µM (MCF-7 cells; read-out: % inhibition p70s6k): 94.7%; IC50 (MCF-7 cells; read-out: IC50 p-p70S6K): ≤ 50 nM; IC50 (mTOR kinase): 1 to 10 nM
COc1ncc(-c2ccc3ncc(F)c(=O)n3c2)cc1NS(=O)(=O)c1ccc(F)cc1F [compound 61, 2,4-difluoro-N-(5-(3-fluoro-4-oxo-4H-pyrido[1,2-a]pyrimidin-7-yl)-2-methoxypyridin-3-yl)benzsulfamide] | ≤ 50 | 10 to 50 | inhibition at 0.5 µM (MCF-7 cells; read-out: % inhibition AKT): 78.9%; inhibition at 0.5 µM (MCF-7 cells; read-out: % inhibition p70s6k): 89.7%; IC50 (MCF-7 cells; read-out: IC50 p-p70S6K): ≤ 50 nM; IC50 (mTOR kinase): ≤ 1 nM
COc1ncc(-c2ccc3ncc(C)c(=O)n3c2)cc1NS(=O)(=O)c1ccc(F)cc1Cl [compound 83] | ≤ 50 | ≤ 1 | inhibition at 0.5 µM (MCF-7 cells; read-out: % inhibition AKT): 95%; inhibition at 0.5 µM (MCF-7 cells; read-out: % inhibition p70s6k): 87.9%; IC50 (MCF-7 cells; read-out: IC50 p-p70S6K): 50 to 100 nM; IC50 (mTOR kinase): 1 to 10 nM
COc1ncc(-c2ccc3nccc(=O)n3c2)cc1NS(=O)(=O)c1ccc(C)cc1F [compound 28] | ≤ 50 | 1 to 10 | inhibition at 1 µM (MCF-7 cells; read-out: % inhibition AKT): 96.2%; inhibition at 1 µM (MCF-7 cells; read-out: % inhibition p70s6k): 93.9%; IC50 (MCF-7 cells; read-out: IC50 p-p70S6K): 50 to 100 nM; IC50 (mTOR kinase): 10 to 50 nM
COc1ncc(-c2ccc3ncc(OC)c(=O)n3c2)cc1NS(=O)(=O)c1ccc(F)cc1Cl [compound 104] | ≤ 50 | 1 to 10 | inhibition at 0.5 µM (MCF-7 cells; read-out: % inhibition AKT): 95.2%; inhibition at 0.5 µM (MCF-7 cells; read-out: % inhibition p70s6k): 91.7%; IC50 (MCF-7 cells; read-out: IC50 p-p70S6K): ≤ 50 nM; IC50 (mTOR kinase): 10 to 50 nM
COc1ncc(-c2ccc3nccc(=O)n3c2)cc1NS(=O)(=O)c1ccc(F)cc1F [compound 1, 2,4-difluoro-N-(2-methoxy-5-(4-oxo-4H-pyrido[1,2-a]pyrimidin-7-yl)pyridin-3-yl)benzsulfamide] | ≤ 50 | 1 to 10 | inhibition at 1 µM (MCF-7 cells; read-out: % inhibition AKT): 97.5%; inhibition at 1 µM (MCF-7 cells; read-out: % inhibition p70s6k): 42.4%; IC50 (MCF-7 cells; read-out: IC50 p-p70S6K): 50 to 100 nM; IC50 (mTOR kinase): 10 to 50 nM
COc1ncc(-c2ccc3ncc(Cl)c(=O)n3c2)cc1NS(=O)(=O)c1sccc1Cl [compound 150] | ≤ 50 | ≤ 1 | inhibition at 0.25 µM (MCF-7 cells; read-out: % inhibition AKT): 93.5%; inhibition at 0.25 µM (MCF-7 cells; read-out: % inhibition p70s6k): 82.3%; IC50 (MCF-7 cells; read-out: IC50 p-p70S6K): ≤ 50 nM; IC50 (mTOR kinase): 1 to 10 nM
COc1ncc(-c2ccc3ncc(Cl)c(=O)n3c2)cc1NS(=O)(=O)c1ccc(F)cc1F [compound 132, N-(5-(3-chloro-4-oxo-4H-pyrido[1,2-a]pyrimidin-7-yl)-2-methoxypyridin-3-yl)-2,4-difluorobenzsulfamide] | ≤ 50 | 1 to 10 | inhibition at 0.5 µM (MCF-7 cells; read-out: % inhibition AKT): 93%; inhibition at 0.5 µM (MCF-7 cells; read-out: % inhibition p70s6k): 88.8%; IC50 (MCF-7 cells; read-out: IC50 p-p70S6K): 100 to 250 nM; IC50 (mTOR kinase): 1 to 10 nM
COc1ncc(-c2ccc3ncc(OCCOCC(F)(F)F)c(=O)n3c2)cc1NS(=O)(=O)c1ccc(F)cc1Cl [compound 242] | 100 to 250 | ≤ 1 | –
COCCOc1cnc2ccc(-c3cnc(OC)c(NS(=O)(=O)c4c(Cl)cccc4Cl)c3)cn2c1=O [compound 245] | ≤ 50 | ≤ 1 | –
COc1ncc(-c2ccc3ncc(OCC4COC4)c(=O)n3c2)cc1NS(=O)(=O)c1c(Cl)cccc1Cl [compound 249] | ≤ 50 | ≤ 1 | –
COc1ncc(-c2ccc3ncc(OCCCF)c(=O)n3c2)cc1NS(=O)(=O)c1ccc(F)cc1Cl [compound 243] | ≤ 50 | ≤ 1 | –
COCCOc1cnc2ccc(-c3cnc(OC)c(NS(=O)(=O)c4cccc(C)c4)c3)cn2c1=O [compound 247] | 100 to 250 | ≤ 1 | –

Second part, led by results:

IC50 (MCF-7 cells; read-out: IC50 p-AKT) [nM] | IC50 (PI3K (p110α) kinase) [nM] | Compound | other results
100 to 250 | ≤ 1 | COCCOc1cnc2ccc(-c3cnc(OC)c(NS(=O)(=O)c4cc(F)ccc4C)c3)cn2c1=O [compound 260] | –
50 to 100 | ≤ 1 | COCCOc1cnc2ccc(-c3cnc(OC)c(NS(=O)(=O)c4cc(C)ccc4C)c3)cn2c1=O [compound 262] | –
≤ 50 | ≤ 1 | COCCOc1cnc2ccc(-c3cnc(OC)c(NS(=O)(=O)c4ccc(C)cc4Cl)c3)cn2c1=O [compound 275] | –
≤ 50 | ≤ 1 | COCCOc1cnc2ccc(-c3cnc(OC)c(NS(=O)(=O)c4ccccc4Cl)c3)cn2c1=O [compound 253] | –
≤ 50 | ≤ 1 | COc1ncc(-c2ccc3ncc(OCC4COC4)c(=O)n3c2)cc1NS(=O)(=O)c1ccccc1Cl [compound 257] | –
50 to 100 | ≤ 1 | COc1ncc(-c2ccc3ncc(OCC4COC4)c(=O)n3c2)cc1NS(=O)(=O)c1ccc(F)c(F)c1 [compound 250] | –
– | 1 to 10 | COCCOc1cnc2ccc(-c3cnc(OC)c(NS(=O)(=O)c4cc(C)c(Cl)cc4F)c3)cn2c1=O [compound 269] | –
– | 1 to 10 | COCCOc1cnc2ccc(-c3cnc(OC)c(NS(=O)(=O)n4nc(C)cc4C)c3)cn2c1=O [compound 283] | –
50 to 100 | ≤ 1 | COCCOc1cnc2ccc(-c3cnc(OC)c(NS(=O)(=O)c4ccc(Cl)cc4Cl)c3)cn2c1=O [compound 263] | –
– | 1 to 10 | COCCOc1cnc2ccc(-c3cnc(OC)c(NS(=O)(=O)c4ccc(F)cc4C4CC4)c3)cn2c1=O [compound 284] | –
50 to 100 | ≤ 1 | COCCOc1cnc2ccc(-c3cnc(OC)c(NS(=O)(=O)c4cccc(Cl)c4C)c3)cn2c1=O [compound 261] | –
50 to 100 | ≤ 1 | COCCOc1cnc2ccc(-c3cnc(OC)c(NS(=O)(=O)c4ccc(Cl)cc4F)c3)cn2c1=O [compound 271] | –
100 to 250 | ≤ 1 | COc1ncc(-c2ccc3ncc(OCC4COC4)c(=O)n3c2)cc1NS(=O)(=O)c1ccc(F)cc1C [compound 255] | –
> 250 | 1 to 10 | COCCOc1cnc2ccc(-c3cnc(OC)c(NS(=O)(=O)c4ccc(F)cc4C)c3)cn2c1=O [compound 252] | –
100 to 250 | ≤ 1 | COCCOc1cnc2ccc(-c3cnc(OC)c(NS(=O)(=O)c4c(F)cccc4F)c3)cn2c1=O [compound 265] | –
– | 1 to 10 | COCCOc1cnc2ccc(-c3cnc(OC)c(NS(=O)(=O)c4cc(C)c(Cl)cc4Cl)c3)cn2c1=O [compound 258] | –
100 to 250 | ≤ 1 | COc1ncc(-c2ccc3ncc(OCC4COC4)c(=O)n3c2)cc1NS(=O)(=O)c1ccc(C)cc1C [compound 251] | –
100 to 250 | 1 to 10 | COCCOc1cnc2ccc(-c3cnc(OC)c(NS(=O)(=O)c4c(C)cc(C)cc4C)c3)cn2c1=O [compound 268] | –
– | ≤ 1 | COCCOc1cnc2ccc(-c3cnc(OC)c(NS(=O)(=O)c4cnc(C)cc4C)c3)cn2c1=O [compound 282] | –
≤ 50 | ≤ 1 | COc1ncc(-c2ccc3ncc(OCC4COC4)c(=O)n3c2)cc1NS(=O)(=O)c1ccc(C)cc1Cl [compound 277] | –
